According to US5830912A, “Derivatives of 6,8-difluoro-7-hydroxycoumarin” (Molecular Probes, Inc., priority 1996, dated 1998):
Like-named read-outs stand apart in the source and are kept apart here.

Experiments:
[1] = Photobleaching during illumination in a fluorometer; assay type: physicochemical; conditions: after 33 minutes of illumination in a fluorometer at the wavelength of maximum excitation
Experimental: | *Percent decrease in fluorescence intensity after 33 minutes of | illumination in a fluorometer at the wavelength of maximum excitation.

[2] = pH titration of fluorophores (pKa determination); assay type: physicochemical
Experimental: The dye of interest is first dissolved in a series of buffers that have each been calibrated using a pH meter. Acetate buffers are typically used in the range of pH 4-6, and phosphate buffers in the pH range 6-8. Absorption measurements are made using solutions that are approximately 10 μM in concentration, and fluorescence measurements are made using solutions that are approximately 1 μM in concentration. The absorption or emission data is then plotted versus pH to determine pKa values.

[3] = Quantum yield of selected dyes (Table 3); assay type: physicochemical
alkaline phosphatase = test: Fluorogenic substrate assay with alkaline phosphatase; assay type: biochemical; conditions: pH 10.4 glycine buffer with 1 mM MgCl2, FIG. 4
Experimental: (§1) The utility of Compound 6 as a substrate for both alkaline and acid phosphatase is compared with the utility of the non-fluorinated analog, 4-methylumbelliferyl phosphate (MUP).
(§2) 1) Fluorescence yield: For an accurate comparison, the concentrations of the two substrates (initially approximately 10 mM) are matched by normalizing the absorbance of each substrate solution at 319 nm (pH 10) to a value of 0.52 (assuming the extinction coefficient of each substrate is approximately equivalent). The matched samples are then diluted 1:10 into excess enzyme buffer (10 units/mL), and the resulting fluorescence signal is recorded as a function of time (excitation 360 nm, emission 450 nm). The fluorescence yield obtained with acid phosphatase (pH 4.8, citrate buffer) is about 10 times greater when using Compound 6 than that obtained using MUP after one hour (FIG. 4). […] Using alkaline phosphatase (pH 10.4, glycine buffer with 1 mM MgCl2) the fluorescence yield obtained using Compound 6 is approximately 25% greater than that obtained using MUP (FIG. 4);

acid phosphatase = test: Fluorogenic substrate assay for acid phosphatase activity; assay type: biochemical
Experimental: as §1, §2
As above, the substrate samples are matched in concentration by normalizing absorbance values at 316 nm to a value of 0.525, then diluting 1:10.
3) Enzyme sensitivity: Serial dilutions of acid phosphatase are incubated with 50 μM of each substrate for 1 hour at pH 5, then fluorescence intensity at 460 nm is collected following 360 nm excitation.

β-galactosidase = β-galactosidase (Escherichia coli, UniProt P00722); test: Fluorogenic substrate assay for β-galactosidase activity; assay type: biochemical; conditions: for Km: read-out: Km (Michaelis-Menton constant), 0.01 units β-galactosidase, FIG. 9
Chain of β-galactosidase (P00722 2-1024): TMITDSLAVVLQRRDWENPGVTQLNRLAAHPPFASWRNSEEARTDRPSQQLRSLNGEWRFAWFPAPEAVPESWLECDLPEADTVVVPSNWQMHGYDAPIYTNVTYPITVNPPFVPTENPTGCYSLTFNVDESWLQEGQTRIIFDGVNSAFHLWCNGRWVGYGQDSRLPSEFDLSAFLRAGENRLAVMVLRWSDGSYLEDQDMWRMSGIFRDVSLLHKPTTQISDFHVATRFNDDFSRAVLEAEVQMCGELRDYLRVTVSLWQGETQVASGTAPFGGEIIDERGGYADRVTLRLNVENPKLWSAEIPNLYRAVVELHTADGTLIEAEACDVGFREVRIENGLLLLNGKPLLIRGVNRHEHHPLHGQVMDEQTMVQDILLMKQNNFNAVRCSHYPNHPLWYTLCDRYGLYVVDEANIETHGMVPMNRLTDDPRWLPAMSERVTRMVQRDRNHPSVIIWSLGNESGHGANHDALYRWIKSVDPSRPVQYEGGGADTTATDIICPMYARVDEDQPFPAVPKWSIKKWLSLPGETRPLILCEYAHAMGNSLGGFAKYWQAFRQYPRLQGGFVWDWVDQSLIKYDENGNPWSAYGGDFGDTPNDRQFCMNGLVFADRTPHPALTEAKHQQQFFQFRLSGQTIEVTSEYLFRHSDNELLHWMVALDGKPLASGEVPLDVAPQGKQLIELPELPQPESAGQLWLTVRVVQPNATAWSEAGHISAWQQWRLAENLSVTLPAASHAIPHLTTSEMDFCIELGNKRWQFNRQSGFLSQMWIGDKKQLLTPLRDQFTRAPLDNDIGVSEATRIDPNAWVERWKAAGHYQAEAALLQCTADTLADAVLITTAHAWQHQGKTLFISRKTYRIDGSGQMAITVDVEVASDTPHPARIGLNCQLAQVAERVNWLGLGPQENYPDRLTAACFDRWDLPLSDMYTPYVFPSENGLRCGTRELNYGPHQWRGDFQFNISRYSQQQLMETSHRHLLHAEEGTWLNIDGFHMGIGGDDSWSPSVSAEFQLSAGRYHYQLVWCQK
Experimental: The utility of Compound 9 as a substrate for β-galactosidase is compared with the utility of the non-fluorinated analog, 4-methylumbelliferyl β-D-galactoside (MUG).
1) Fluorescence yield: For an accurate comparison, the concentrations of the two substrates (initially approximately 10 mM) are matched by normalizing the absorbance of each substrate solution at 316 nm (pH 8.3; 20 mM sodium bicarbonate) to a value of 0.5 (assuming the extinction coefficient of each substrate is approximately equivalent). The matched samples are then diluted 1:10 into β-galactosidase buffer pH 7.0, and 2 units enzyme/mL are added. The use of Compound 9 as an enzyme substrate produces an approximately 8-fold signal enhancement over the use of MUG, when the fluorescence is measured at the reaction pH. […] However, even after optimization, the signal derived using Compound 9 (at pH 7.0) is still approximately 4-fold greater than that obtained using MUG (at pH 10).
2) Km determination: In a series of experiments, increasing amounts of each substrate are incubated with 0.01 units of β-galactosidase for 1 hour. The resulting fluorescence is measured by exciting at 360 nm, and the emission is collected at 460 nm.
3) Reaction rate: The fluorescence yield is measured at high substrate concentrations (50 μM) (relative to low enzyme concentration (0.01 units/mL)) over the course of 1 hour to compare reaction rates.
4) Enzyme sensitivity: Serial dilutions of […] are incubated with 50 μM of each substrate for 1 hour at pH 7, then fluorescence intensity at 460 nm is collected (following 360 nm excitation).

[4] = 1 hour, excitation 360 nm, emission 460 nm

Photobleaching: percent decrease in fluorescence intensity [1] [%] | pKa [2] | Quantum Yield (pH 9) [3] | Structure (SMILES) | other results
 | 4.2 | 0.54 | Cc1cc(=O)oc2c(F)c(O)c(F)c(F)c12 | 
31 | 7.3 | 0.34 | O=c1cc(C(F)(F)F)c2ccc(O)cc2o1 | 
18 | 5.7 | 0.44 | O=c1cc(C(F)(F)F)c2cc(F)c(O)cc2o1 | 
 | ~ 7.4 |  | Cc1c(CC(=O)O)c(=O)oc2cc(O)ccc12 [7-hydroxy-4-methylcoumarin-3-acetic acid] | 
 | ~ 6.2 |  | Cc1c(CC(=O)O)c(=O)oc2c(F)c(O)c(F)cc12 [Compound 11, 6,8-difluoro-7-hydroxy-4-methylcoumarin-3-acetic acid] | 
 | 5.0 |  | O=c1oc2c(F)c(O)c(F)cc2cc1-c1nc2ccccc2s1 [Compound 17, 3-benzothiazolyl-6,8-difluoro-7-hydroxycoumarin] | 
7 | 4.0 | 0.23 | O=c1cc(C(F)(F)F)c2cc(F)c(O)c(F)c2o1 [Compound 20, 6,8-difluoro-7-hydroxy-4-trifluoromethylcoumarin] | 

Continued, compound first:

Structure (SMILES) | Photobleaching: percent decrease in fluorescence intensity [1] [%] | pKa [2] | Quantum Yield (pH 9) [3] | other results
Cc1cc(=O)oc2cc(O)c(F)cc12 | 20 | 6.4 | 0.64 | 
Cc1cc(=O)oc2cc(O)cc(F)c12 | 12 | 5.9 | 0.78 | 
Cc1cc(=O)oc2cc(O)ccc12 [7-hydroxy-4-methylcoumarin] | 22 | 7.9 | 0.63 | pKa ([2]; stated in Example 47 for the product of MUG deglycosylation): 7.8
Cc1cc(=O)oc2c(F)c(O)c(F)cc12 [Compound 4, 6,8-difluoro-7-hydroxy-4-methylcoumarin] | 5 |  | 0.89 | pKa ([2]; Table 3): 4.7
Cc1cc(=O)oc2c(F)c(OP(=O)(O)O)c(F)cc12 [Compound 6, 6,8-difluoro-7-hydroxy-4-methylcoumarin phosphate, free acid] |  |  |  | Fluorescence yield, increase over MUP (alkaline phosphatase): approximately 25%; Enzyme concentration detection threshold, fold lower than with MUP (acid phosphatase; acid phosphatase 0.00001 to 10 units/mL, 50 μM substrate, 1 hour, pH 5, FIGS. 6 and 7): approximately 10 fold; Initial reaction rate of hydrolysis compared with MUP (acid phosphatase; acid phosphatase 0.01 units/mL, large excess of substrate, pH 4.8 citrate buffer, FIG. 5): significantly higher; Fluorescence signal relative to MUP after raising both reaction solutions to pH 10 (acid phosphatase; acid phosphatase reaction at pH 4.8, then raised to pH 10): twice as large; Sensitivity to enzyme concentration compared with MUP after raising the pH to 10 (acid phosphatase; acid phosphatase, 50 μM substrate, 1 hour at pH 5, then pH 10): approximately twice as sensitive; Fluorescence yield relative to MUP (acid phosphatase; acid phosphatase, pH 4.8 citrate buffer, after one hour, excitation 360 nm, emission 450 nm, FIG. 4): approximately 10 times
Cc1cc(=O)oc2c(F)c(O[C@@H]3O[C@H](CO)[C@H](O)[C@H](O)[C@H]3O)c(F)cc12 [Compound 9, 6,8-difluoro-7-hydroxy-4-methylcoumarin, β-D-galactopyranoside] |  |  |  | Reaction rate with β-galactosidase compared with MUG (β-galactosidase; 50 μM substrate, 0.01 units/mL enzyme, 1 hour, FIG. 10): react more rapidly; Enzyme concentration detection threshold, fold lower than with MUG (β-galactosidase; 50 μM substrate, 1 hour, pH 7, FIG. 11): approximately 10 fold; Km (β-galactosidase; [4]): ~25 µM; Fluorescence signal enhancement over MUG at the reaction pH (β-galactosidase; β-galactosidase 2 units/mL, pH 7.0, emission 460 nm, excitation 360 nm, FIG. 8): approximately 8 fold; Fluorescence signal (at pH 7.0) relative to MUG optimized at pH 10 (β-galactosidase; β-galactosidase 2 units/mL, MUG reaction raised to pH 10 with NaOH): approximately 4 fold
Cc1cc(=O)oc2cc(O[C@@H]3O[C@H](CO)[C@H](O)[C@H](O)[C@H]3O)ccc12 [MUG, 4-methylumbelliferyl β-D-galactoside] |  |  |  | Km (β-galactosidase; [4]): ~60 µM
